According to patent publication US20210178012A1, “FOAM WOUND DRESSING COMPRISING AN ANTISEPTIC” (Coloplast A/S, priority 2018, published 2021):

Tests used:
[1] = Octenidine in foam, no surfactant: extraction from impregnated hydrophilic polyurethane foam discs; type: physicochemical; conditions: plain foam, 24 h extraction
Procedure: Discs of hydrophilic polyurethane foam were impregnated by applying a known volume of octenidine-containing solution to the surface of the foam and letting it soak into the foam matrix in a liquid:foam ratio which allowed the foam to be saturated with liquid. Afterwards, the impregnated foam was dried at RT overnight. The dried foam disc was immersed in the extraction media for 24 h and the extracted octenidine concentration was determined by UV at 285 nm

[2] = Previous zone of inhibition studies (not shown); type: cell-based; conditions: pure octenidine impregnated into foam without surfactants
[3] = 0.1 w % OCT in impregnation solution
[4] = 0.5 w % OCT in impregnation solution
[5] = 1.0 w % OCT in impregnation solution

## CCCCCCCCN=c1ccn(CCCCCCCCCCn2ccc(=NCCCCCCCC)cc2)cc1 [Octenidine, octenidine]
[1]; [3]
  Release % phosphate buffer (23 mM): 7%
  Release % water: 5%
[1]; [4]
  Release % phosphate buffer (23 mM): 13%
  Release % water: 1.5%
[1]; [5]
  Release % phosphate buffer (23 mM): 20%
  Release % water: 1.5%
[2]
  zones in a zone of inhibition study: small or no zones
